# Results: the supplement of paper PMC4862054
# Values joined by “and” are separate entries in the source; they are usually repeats but may differ in a detail not shown here. Identical values can stand only once.
# Legend:
# Settings in all cases: incubation time: 72 h
# [1] = test system: MDA-MB-453; experiment: normalised viability (% of control), CellTiter-Blue; higher = more viable cells (about 100 = DMSO control)
# Procedure: (§1)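 DSRT, CellTiter-Blue viability, 72 h incubation. Signal is normalised to DMSO and benzethonium chloride controls. Value is the normalised response at dose 7.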
# [2] = test system: HDQ-P1; experiment: as above
# Procedure: as §1
# [3] = test system: CAL-51; experiment: as above
# Procedure: as §1
# [4] = test system: CAL-85-1; experiment: as above
# Procedure: as §1
# [5] = test system: CAL-148; experiment: as above
# Procedure: as §1
# [6] = test system: DU-4475; experiment: as above
# Procedure: as §1
# [7] = test system: HCC1937; experiment: normalised viability (% of control), CellTiter-Blue; higher = more viable cells (about 100 = DMSO control)
# Summary of the method: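 Each value is normalised viability at a single listed concentration of the series. Breast cancer cell lines in 384-well plates were incubated 72 h with compound and read by CellTiter-Blue fluorescence at 560/590 nm, with vehicle set to 100 and a positive kill control to 0 on every plate.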
# [8] = test system: HCC1143; experiment: drug sensitivity score (DSS), CellTiter-Glo (DSS (AUC-based score)); higher = stronger drug effect (viability inhibition or cytotoxicity); extreme values may be limits of the assay
# Summary of the method: (§2)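 The drug sensitivity score reflects the area under a fitted dose-response curve. To obtain it, breast cancer cells in 20 µl suspension were seeded into 384-well plates containing compound at 5 concentrations, 10-fold apart over a compound-specific 10,000-fold range, and incubated 72 h. CellTox Green fluorescence (485/520 nm) was read first and CellTiter-Glo luminescence second, after 10 min at room temperature. Each plate was normalised to 0.1 % DMSO and a positive kill control.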
# [9] = test system: MDA-MB-453; experiment: as above
# Summary of the method: as §2
# [10] = test system: MCF-10A; experiment: as above
# Summary of the method: as §2
# [11] = test system: CAL-120; experiment: as above
# Summary of the method: as §2
# [12] = test system: HDQ-P1; experiment: as above
# Summary of the method: as §2
# [13] = test system: MDA-MB-436; experiment: as above
# Summary of the method: as §2
# [14] = test system: MDA-MB-231; experiment: as above
# Summary of the method: as §2
# [15] = test system: MFM-223; experiment: as above
# Summary of the method: as §2
# [16] = test system: MDA-MB-468; experiment: as above
# Summary of the method: as §2
# [17] = test system: SK-BR-3; experiment: as above
# Summary of the method: as §2
# [18] = test system: Hs578T; experiment: as above
# Summary of the method: as §2
# [19] = test system: CAL-51; experiment: as above
# Summary of the method: as §2
# [20] = test system: BT-549; experiment: as above
# Summary of the method: as §2
# [21] = test system: BT-474; experiment: as above
# Summary of the method: as §2
# [22] = test system: CAL-85-1; experiment: as above
# Summary of the method: as §2
# [23] = test system: CAL-148; experiment: as above
# Summary of the method: as §2
# [24] = test system: DU-4475; experiment: as above
# Summary of the method: as §2
# [25] = test system: HCC1599; experiment: as above
# Summary of the method: as §2
# [26] = test system: HCC1937; experiment: as above
# Summary of the method: as §2
SMILES,normalised viability ([7]; 1000 nM),drug sensitivity score [8],drug sensitivity score [9],drug sensitivity score [10],drug sensitivity score [11],drug sensitivity score [12],drug sensitivity score [13],drug sensitivity score [14],drug sensitivity score [15],drug sensitivity score [16],drug sensitivity score [17],drug sensitivity score [18],drug sensitivity score [19],drug sensitivity score [20],drug sensitivity score [21],drug sensitivity score [22],drug sensitivity score [23],drug sensitivity score [24],drug sensitivity score [25],drug sensitivity score [26],other results
C=CC(=O)Nc1cc2c(Nc3ccc(F)c(Cl)c3)ncnc2cc1OCCCN1CCOCC1 [Canertinib],73.1%,3.9,6.35,22,3.29,11.8,4.2,8.75,3.18,10.6,20.8,2.99,14.1,7.57,6.57,13.6,5.7,0.331,3.8,5.34,normalised viability ([1]; 1000 nM): 33.8%; normalised viability ([2]; 1000 nM): 55.4%; normalised viability ([3]; 1000 nM): 101%; normalised viability ([4]; 1000 nM): 49.5%; normalised viability ([5]; 1000 nM): 68.6%; normalised viability ([6]; 1000 nM): 114%; normalised viability ([7]; 10 nM): 62.8%; normalised viability ([7]; 10000 nM): 13.6%
O=C(O)C1(C(=O)O)CCC1.[NH2-].[NH2-].[Pt+2] [Carboplatin],103%,0,0,0,0,0,0,0,0,0,0,0,0,0,0,0,0,0,0,0,normalised viability ([1]; 1000 nM): 99.3%; normalised viability ([2]; 1000 nM): 97.1%; normalised viability ([3]; 1000 nM): 99.9%; normalised viability ([4]; 1000 nM): 81.5%; normalised viability ([5]; 1000 nM): 103%; normalised viability ([6]; 1000 nM): 97.3%; normalised viability ([7]; 10 nM): 82.3%; normalised viability ([7]; 10000 nM): 54.2%
COc1cc2c(Oc3ccc4[nH]c(C)cc4c3F)ncnc2cc1OCCCN1CCCC1 [Cediranib],83.4%,0,0,0,0,0,0,0,1.86,0,0,0,0,0,0,0,0,0,0,0,normalised viability ([1]; 100 nM): 92%; normalised viability ([2]; 100 nM): 95.9%; normalised viability ([3]; 100 nM): 81.6%; normalised viability ([4]; 100 nM): 95.6%; normalised viability ([5]; 100 nM): 108%; normalised viability ([6]; 100 nM): 81.3%; normalised viability ([7]; 1 nM): 66.2%; normalised viability ([7]; 100 nM): 78.5%
Cc1ccc(-c2cc(C(F)(F)F)nn2-c2ccc(S(N)(=O)=O)cc2)cc1 [Celecoxib],80.3%,0,0,0,0,0,0,0,0,0,0,0,0,0,0,0,0,0,0,0,normalised viability ([1]; 1000 nM): 103%; normalised viability ([2]; 1000 nM): 83.2%; normalised viability ([3]; 1000 nM): 93.5%; normalised viability ([4]; 1000 nM): 69.9%; normalised viability ([5]; 1000 nM): 75.5%; normalised viability ([6]; 1000 nM): 110%; normalised viability ([7]; 10 nM): 85.3%; normalised viability ([7]; 10000 nM): 79.4%
Nc1ncn([C@H]2C[C@H](O)[C@@H](CO)O2)c(=O)n1 [Decitabine],77.2% and 76.6%,0,0,0,0.811,0.141,0,0,0,19,0,0.0828,3.54,3.92,0.527,0,0,0,0,1.42,normalised viability ([1]; 1000 nM): 96% and 103%; normalised viability ([2]; 1000 nM): 87.1% and 88.9%; normalised viability ([3]; 1000 nM): 107% and 98.7%; normalised viability ([4]; 1000 nM): 78.2% and 89.6%; normalised viability ([5]; 1000 nM): 75.2% and 75%; normalised viability ([6]; 1000 nM): 76.6% and 89.9%; normalised viability ([7]; 10 nM): 120% and 99%; normalised viability ([7]; 10000 nM): 69.2% and 62.8%
Nc1ccccc1NC(=O)c1ccc(CNC(=O)OCc2cccnc2)cc1 [Entinostat],82.4%,3.36,6.08,0,0,2.05,2.51,2.59,3.34,4.34,6.67,4.83,12.8,8.43,2.59,1.24,4.83,4.63,4.34,0,normalised viability ([1]; 1000 nM): 89.1%; normalised viability ([2]; 1000 nM): 111%; normalised viability ([3]; 1000 nM): 105%; normalised viability ([4]; 1000 nM): 85.4%; normalised viability ([5]; 1000 nM): 78.8%; normalised viability ([6]; 1000 nM): 121%; normalised viability ([7]; 10 nM): 124%; normalised viability ([7]; 10000 nM): 56.8%
Nc1nc(F)nc2c1ncn2[C@@H]1O[C@H](CO)[C@@H](O)[C@@H]1O [Fludarabine],84.8%,0,0,0,0.352,0,1.1,0,0,0,0,0,0,0.896,0,0.486,0,0,0,0,normalised viability ([1]; 1000 nM): 108%; normalised viability ([2]; 1000 nM): 98.4%; normalised viability ([3]; 1000 nM): 102%; normalised viability ([4]; 1000 nM): 93.8%; normalised viability ([5]; 1000 nM): 93.8%; normalised viability ([6]; 1000 nM): 99.5%; normalised viability ([7]; 10 nM): 97.5%; normalised viability ([7]; 10000 nM): 54.5%
O=C(Cc1ccc(-c2ccc(OCCN3CCOCC3)cc2)cn1)NCc1ccccc1 [KX2-391],16.9%,14.7,9,8.52,11,8.26,21,14.1,15.6,20,27.5,23.2,25.9,16.3,12.8,18.5,16.9,15.2,23.8,8.24,normalised viability ([1]; 1000 nM): 25%; normalised viability ([2]; 1000 nM): 45.1%; normalised viability ([3]; 1000 nM): 11.1%; normalised viability ([4]; 1000 nM): 33.9%; normalised viability ([5]; 1000 nM): 18.4%; normalised viability ([6]; 1000 nM): 9.93%; normalised viability ([7]; 10 nM): 108%; normalised viability ([7]; 10000 nM): 15.9%
N#Cc1ccc(C(c2ccc(C#N)cc2)n2cncn2)cc1 [Letrozole],82.6%,0,0,0,0,0,0,0,0,0,0,0,0,0,0,0,0,0,0,0,normalised viability ([1]; 1000 nM): 96.5%; normalised viability ([2]; 1000 nM): 83.8%; normalised viability ([3]; 1000 nM): 106%; normalised viability ([4]; 1000 nM): 84.8%; normalised viability ([5]; 1000 nM): 86%; normalised viability ([6]; 1000 nM): 87.2%; normalised viability ([7]; 10 nM): 81.8%; normalised viability ([7]; 10000 nM): 82%
CCN(CC)CCCC(C)Nc1c2ccc(Cl)cc2nc2ccc(OC)cc12 (stereo not given) [Mepacrine],63.6%,0,0,0,0,0,0,0,0,0,0,0,0,0,0,0,0,0,0,0,normalised viability ([1]; 99 nM): 97.2%; normalised viability ([1]; 1000 nM): 101%; normalised viability ([2]; 99 nM): 86.9%; normalised viability ([2]; 1000 nM): 84.9%; normalised viability ([3]; 99 nM): 96.2%; normalised viability ([3]; 1000 nM): 103%; normalised viability ([4]; 99 nM): 97.8%; normalised viability ([4]; 1000 nM): 90.3%; normalised viability ([5]; 99 nM): 122%; normalised viability ([5]; 1000 nM): 81.4%; normalised viability ([6]; 99 nM): 97.3%; normalised viability ([6]; 1000 nM): 84.3%; normalised viability ([7]; 0.99 nM): 118%; normalised viability ([7]; 10 nM): 108%; normalised viability ([7]; 99 nM): 78.7%; normalised viability ([7]; 990 nM): 15.8%; normalised viability ([7]; 10000 nM): 10.7%
C[C@H]1C[C@@H]2[C@H]([C@@H](O)C[C@@]3(C)[C@H]2CC[C@]3(O)C(=O)CO)[C@@]2(C)C=CC(=O)C=C12 [Methylprednisolone],106%,0,0,0,6.14,1.31,0,0,0,0,0,0,0,0,0,0,0,0,0,0,normalised viability ([1]; 1000 nM): 69.3%; normalised viability ([2]; 1000 nM): 109%; normalised viability ([3]; 1000 nM): 102%; normalised viability ([4]; 1000 nM): 97%; normalised viability ([5]; 1000 nM): 108%; normalised viability ([6]; 1000 nM): 104%; normalised viability ([7]; 10 nM): 80.2%; normalised viability ([7]; 10000 nM): 80.4%
O=C(O)C(=O)O.[NH-][C@@H]1CCCC[C@H]1[NH-].[Pt+2] [Oxaliplatin],82.2%,0,0,0,0,0,0,0,0,0,0,0,0,0,0,0,0,0,0,0,normalised viability ([1]; 1000 nM): 109%; normalised viability ([2]; 1000 nM): 97.9%; normalised viability ([3]; 1000 nM): 91.1%; normalised viability ([4]; 1000 nM): 93.2%; normalised viability ([5]; 1000 nM): 125%; normalised viability ([6]; 1000 nM): 104%; normalised viability ([7]; 10 nM): 90.7%; normalised viability ([7]; 10000 nM): 33.9%
